Measurements from patent EP0234113A1, “2,3-Dihydro-1H-phenalene-2-amino compounds as anti-psychotic drugs” (THE UPJOHN COMPANY, priority 1985, dated 1987).
Where a name gives a salt, the structure may show the parent alone.

Key:
[1] = tested on: body temperature; assay: Hypothermia Test (effect on body temperature); assay type: in vivo, CF-1 male mice; details: for active in either the hypothermic or the apomorphine antogonism test: either test: hypothermic or apomorphine antagonism; for ED50: Mus musculus, ip, 0.75 h, read-out: Hypothermia ED50
Procedure: (§1) The Effect on Body Temperature (Hypothermia) Test and the Antagonism of Apomorphone-Induced Case Climbing (ACC), (Apomorphine Gnawing Test) are described on page 1398 of the publication, Journal of Medicinal Chemistry, Vol. 22, No. 11, pp. 1390-1398, in an article entitled "6-Aryl-4H-s-triazolo[4,3-a][1,4]benzodiazepines....Action" by J. B. Hester, Jr., et al.
For the tests here, the Hypothermia Test procedure was run as follows:
A group of four CF-1 male mice (18-22 g each) was injected intraperitoneally with the test compound prepared in 0.25 percent w/v methylcellulose in water solution. After 45 min, abdominal temperature of each mouse was measured using a thermister probe. A control group of four mice was treated with vehicle only and the temperature of the control group was taken in a similar manner. A compound was considered to have a significant effect on body temperature if the mean temperature in the test compound treated group deviated more than 3.5°C from the mean temperature of the parallel control group. Stimulants tend to elevate temperatures; depressants tend to lower body temperature.

[2] = tested on: dopamine neurons; assay: Depression of dopamine neuron firing rates by the drug alone; assay type: in vivo, rats; details: Rattus norvegicus, iv; for Emax: read-out: MAXIMUM EFFECT (per cent decrease)
Procedure: (§2) Table 2. Dopamine neuron firing rates were recorded according to published procedures and drugs were injected intravenously in chloral hydrate anesthetized rats. A. Ability of drugs to reverse the depression in firing rates of dopamine neurons by 1 to 2 mg/kg amphetamine. The maximum effect is the maximum amount of the amphetamine effect that was reversed, even when doses were increased beyond dose causing maximum effect. An effect greater than 100% indicates excitation of the neuron beyond its' control rate whereas an effect less than 100% indicates partial agonist effects. B. Depression of dopamine neurons by full agonist apomorphine and partial agonists TDHL, (-)PPP and U-64,273A. Maximum effect is maximum depression that could be realized even after increasing doses beyong the dose causing maximum effect. For both A and B, the ED50 is the dose causing 50% of the respective antagonistic (A) or agonist (B) effect.

[3] = tested on: Catalepsy; assay: Catalepsy; details: rat
From the text: (§3) Table 3. […] A. Behavioral effects in the rat. B. Behavioral effects in the monkey. C. Doses required to antagonize the indicated behavioral effects of amphetamine. D. Doses required to antagonize the indicated behavioral effects of apomorphine.

[4] = tested on: 6-OH DA Turning; assay: Antagonism of amphetamine: 6-OH DA turning; assay type: in vivo; details: i.a. = inactive
From the text: as §3

[5] = tested on: alpha-2; assay: Alpha-2 ligand binding, rat brain homogenates; details: 1μM, - indicates ligand was displaced
[6] = tested on: Locomotor activity; assay: Antagonism of apomorphine locomotor activity in reserpinized mouse; assay type: in vivo
From the text: as §3

[7] = tested on: plasma prolactin; assay: Plasma prolactin; assay type: in vivo; details: 3 mg/kg of chlorpromazine, 30 mg/kg clozapine or U-64,273A; Sprague-Dawley rat
[8] = tested on: dopamine metabolites HVA, DOPAC, and 3MT; assay: Dopamine metabolites in rat brain; assay type: in vivo; details: percentage of control; 3 mg/kg of chlorpromazine, 30 mg/kg clozapine or U-64,273A; Sprague-Dawley rat
[9] = tested on: alpha-1; assay: Alpha-1 ligand binding, rat brain homogenates; details: 1μM, i.a. = inactive
[10] = tested on: Dopamine (3H-spiperone); assay: Receptor Binding Assay with 3H-spiperone (Dopamine Binding Assay), rat brain homogenate; details: for Dopamine Binding Assay % Decrease from Control: single concentration of 1 uM, 3H-spiperone, rat brain homogenate, 30 min
Procedure: The Receptor Binding Assay test for antipsychotic acitvity, was conducted as follows:
A rat brain homogenate was prepared (1) by homogenizing a whole rat brain minus the cerebellum in 10 ml of 0.05M THAM-HC1, pH 7.4, using a Polytron at a setting of 7 for 30 sec. and centrifuging at 15,000xg for 10 min. The supernatant was discarded, the pellet resuspended in 10 ml of buffer using the Polytron for 10 sec., and the centrifugation repeated. The pellet was resuspended and diluted to 100 times the original tissue weight with buffer. Then 100 ml of the homogenate was diluted to 400 ml with buffer.
The test drug was weighed out in a scintillation vial in a 1-5 mg ammount. They were dissolved by adding 0.5 ml of N-N-dimethylformamide of (DMF) and then 0.05 ml of 1M acetic acid, and vortexed to solubilize the drug. Then 10 ml of deionized and filtered water was added to the required volume. All compounds were tested at a single concentration of 1 uM.
Samples were prepared for incubation using an ^3H-spiperone (antipsychotic).
Incubation was conducted at 30°C for 30 min. on a shaking water bath. Every 30 sec., 24 tubes were filled with 1 ml of homogenate and put into the bath (this is done every 3 min. until all tubes are in the bath). Upon completion of the incubation procedure, the samples are filtered and rinsed.
The punched filters are dropped into vials, which are in turn filled with ACS liquid scintillation fluid and capped and counted in a liquid scintillation counter. Counting data is recorded and analyzed.
Results are expressed as percent decrease from control.

[11] = tested on: LSD; assay: LSD ligand binding, rat brain homogenates; details: 1μM, - indicates ligand was displaced
[12] = tested on: muscarinic; assay: Muscarinic ligand binding, rat brain homogenates; details: 1μM, - indicates ligand was displaced
[13] = tested on: dopamine neurons; assay: Reversal of amphetamine depression of dopamine neuron firing rates; assay type: in vivo, rats; details: for Emax / ED50: Rattus norvegicus, Neuron, iv; for Emax: read-out: MAXIMUM EFFECT (per cent reversal)
Procedure: as §2, with “An effect greater than 100% indicates excitation of the neuron beyond its' control rate whereas an effect less than 100% indicates partial agonist effects.” left out

[14] = tested on: Apomorphone-Induced Case Climbing; assay: Apomorphine antagonism (Apomorphine gnawing test; apomorphine-induced cage climbing); assay type: in vivo, Mouse; details: Mus musculus, read-out: Apomor. Antag. ED50
From the text: as §1, §3

[15] = tested on: body temperature; assay: Antagonism of drug-induced hypothermia; set-up: species or system mice; details: mouse, in vivo
[16] = Neuron, dose causing 50% of the agonist effect, intravenously, anesthetized rats, read-out: ED50
[17] = B. depress DA neuron firing rates, intravenously, chloral hydrate anesthetized rats

c1cc2c3c(cccc3c1)CC(N1CCC1)C2 [(54), 1-[2,3-dihydro-IH-phenalen-2-yl]azetidine succinate salt]
active in either the hypothermic or the apomorphine antogonism test [1]: active

CCN(CC)C1Cc2cccc3cccc(c23)C1 [(55), N,N-diethyl-2,3-dihydro-lH-phenalen-2-amine hydrochloride, 0.25 H2O hydrate]
active in either the hypothermic or the apomorphine antogonism test [1]: active

CCCNC1Cc2cccc3cccc(c23)C1 [(56), N-n-propyl-2,3-dihydro-lH-phenalen-2-amine hydrochloride]
active in either the hypothermic or the apomorphine antogonism test [1]: active

CCNC1Cc2cccc3cccc(c23)C1 [(57), N-ethyl-2,3-dihydro-lH-phenalen-2-amine hydrochloride]
active in either the hypothermic or the apomorphine antogonism test [1]: active

CCCN1CCC[C@@H](c2cccc(O)c2)C1 [(-)PPP]
ED50 [2, 16]: 0.137 mg/kg | Emax [2, 17]: 68%

CN1CCc2cccc3c2[C@H]1Cc1ccc(O)c(O)c1-3 [Apomorphine, apomorphine]
ED50 [2, 16]: 0.01 mg/kg | Emax [2, 17]: 100% | Catalepsy, active dose ([3]; in vivo): i.a. | 6-OH DA Turning, rat, dose required to antagonize amphetamine [4]: i.a.

CN(C)CCCN1c2ccccc2Sc2ccc(Cl)cc21 [CHLORPROMAZINE, chlorpromazine, reference compound]
alpha-2, percentage of ligand displaced [5]: -83.4% | Locomotor activity, reserpinized mouse, 3 mg/kg (antag. of apomorphine) [6]: 85% (CPZ) | Plasma Prolactin [7]: 1057% | 3MT [8]: 365% | DOPAC [8]: 375% | HVA [8]: 225% | alpha-1, percentage of ligand displaced [9]: -98.6% | spiperone, percentage of ligand displaced ([10]; 1μM, rat brain homogenates, - indicates ligand was displaced): -81.6% | LSD, percentage of ligand displaced [11]: -76.8% | muscarinic, percentage of ligand displaced [12]: -96.4%

CN1CCN(C2=Nc3cc(Cl)ccc3Nc3ccccc32)CC1 [Clozapine, clozapine]
Locomotor activity, reserpinized mouse, 3 mg/kg (antag. of apomorphine) [6]: 52% | Plasma Prolactin [7]: 42% | 3MT [8]: 104% | DOPAC [8]: 110% | HVA [8]: 118% | Catalepsy, active dose ([3]; i.a. = inactive): i.a. | Emax ([13]; A. antagonize amphetamine depressions, intravenously, chloral hydrate anesthetized rats, 1 to 2 mg/kg amphetamine, >100% = excitation beyond control rate): 105% | ED50 ([13]; dose causing 50% of the antagonistic effect, intravenously, anesthetized rats, read-out: ED50): 2 mg/kg

Cc1ccc2c3c(cccc13)CC(N)C2 (stereo not shown) [Example 38, part C, 6-methyl-2,3-dihydro-lH-phenalen-2-amine]
ED50 [1]: > 50 mg/kg | Dopamine Binding Assay % Decrease from Control [10]: -30.62% | ED50 [14]: 35 mg/kg

CCCN(CCC)C1Cc2cccc3c(C)ccc(c23)C1 (stereo not shown) [Example 38, title compound, 2,3-Dihydro-6-methyl-N,N-dipropyl-lH-phenalene-2-amine]
ED50 [1]: 18 mg/kg | Dopamine Binding Assay % Decrease from Control [10]: -82.08% | ED50 [14]: > 50 mg/kg

CNC1Cc2cccc3c(C)ccc(c23)C1 (stereo not shown) [Example 39, part B, 2,3-dihydro-N,6-dimethyl-1H-phenalen-2-amine]
ED50 [1]: 13 mg/kg | Dopamine Binding Assay % Decrease from Control [10]: -55.37% | ED50 [14]: 35 mg/kg

Cc1ccc2c3c(cccc13)CC(N(C)C)C2 (stereo not shown) [Example 39, part C, 2,3-dihydro-N,N,6-trimethyl-lH-phenalen-2-amine]
ED50 [1]: 5.3 mg/kg | ED50 [14]: 21 mg/kg

CCCN(CCC)C1Cc2cccc3c(SC)ccc(c23)C1 (stereo not shown) [Example 40, 2,3-Dihydro-N,N-di-n-propyl-6-methylthio-lH-phenalen-2-amine]
ED50 [1]: 25 mg/kg | ED50 [14]: 12.5 mg/kg

CCCN(CCC)C1(C)Cc2cccc3cc(O)cc(c23)C1 (stereo not shown) [Example 41, 5-Hydroxy-2-methyl-2,3-dihydro-N,N-di-n-propyl-lH-phenalene-2-amine]
ED50 [1]: > 50 mg/kg | Dopamine Binding Assay % Decrease from Control [10]: -55.18% | ED50 [14]: > 50 mg/kg

O=C(CCCN1CCC(O)(c2ccc(Cl)cc2)CC1)c1ccc(F)cc1 [Haloperidol, haloperidol]
Catalepsy, active dose ([3]; in vivo): 1 mg/kg | ED50 [13]: 0.008 mg/kg | Emax [13]: 164% | increase of firing rates to a level greater than controls ([13]; after reversal of amphetamine depression of DA neuronal firing): 64% | block of hypothermia induced by 2-(N,N-di-n-propylamino)-2,3-dihydro-lH-phenalen-5-ol [15]: significantly blocks

CCN(CC)C(=O)N[C@H]1C[C@@H]2c3cccc4[nH]cc(c34)C[C@H]2N(C)C1 [TDHL, trans-dihydrolisuride]
ED50 ([2]; Neuron): 0.021 mg/kg | Emax ([2]; Neuron): 53% | ED50 [13]: 0.132 mg/kg | Emax [13]: 57%

CN(C)C1Cc2cccc3cccc(c23)C1 [U-65,556, 2,3-dihydro-N,N-dimethyl-lH-phenalen-2-amine]
reversal of amphetamine's depression of DA neuronal firing (in words) ([13]; intravenous, anesthetized rats): reversed amphetamine's depressions of DA neurons without causing firing rates to increase over control

COC(=O)[C@@H]1[C@H]2C[C@H]3c4[nH]c5ccccc5c4CCN3C[C@@H]2CC[C@@H]1O [yohimbine]
block of hypothermia induced by 2-(N,N-di-n-propylamino)-2,3-dihydro-lH-phenalen-5-ol [15]: did not alter | block of hypothermia induced by clonidine [15]: did block

N,N-dimethyl-4-methoxy-1H-phenalen-2-ylamine hydrochloride, 0.25 H20 hydrate [(30)]
active in either the hypothermic or the apomorphine antogonism test [1]: active

N,N-dimethyl-6-(2-methyl-l,3-dioxan-2-yl)-2,3-dihydro-lH- phenalen-2-amine [(8)]
active in either the hypothermic or the apomorphine antogonism test [1]: active

N-methyl-6-(2-methyl-l,3-dioxan-2-yl)-2,3-dihydro-lH-phena- len-2-amine [(5)]
active in either the hypothermic or the apomorphine antogonism test [1]: active

N-methyl-6-(2-methyl-l,3-dioxan-2-yl)-2,3-dihydro-lH-phena- len-2-amine maleate salt [(6)]
active in either the hypothermic or the apomorphine antogonism test [1]: active

[2-amino-2,3-dihydro-lH-phenalen-6-yl]-a-benzyl ether maleate salt [(49)]
active in either the hypothermic or the apomorphine antogonism test [1]: active
